Measured values reported in patent US12428422B2, “Purine derivatives as SIK-3 inhibitors” (RHIZEN PHARMACEUTICALS AG, priority 2020, dated 2025).

What was measured:
Type in all cases: cell-based
[1] = test system: TNFα; test: TNFα levels in LPS-stimulated human macrophages by ELISA; details: LPS (1 μg/mL) stimulated human macrophages, supernatant after 4 hours
Description: Assay 3: TNFα Levels in LPS-Stimulated (1 μg/ml) Human Macrophages Following Treatment with Compound M1 was Estimated by ELISA.
Isolation of Human PBMCs (Peripheral Blood Mononuclear Cells)
The second layer from the top, the buffy coat, was collected carefully with a serological pipette and placed in a new 50 ml centrifuge tube. The volume was made up to 50 mL with 1×PBS and centrifuged at 250×g for 10 min at room temperature. • The supernatant was discarded and red blood cells (RBCs) were resuspended with 5 mL ACK lysis buffer to facilitate RBC lysis and left at room temperature for 5 min. The tube was filled up with 1×PBS and centrifuged at 250×g for 10 min at room temperature. • The supernatant was discarded and the pellet was re-suspended in 5 mL of RPMI complete media. • Cells were counted on a haemocytometer. […] Assay Protocol • Cells were scraped and centrifuged at 250×g for 8 mins and cell concentration was determined. • 0.2×10^6 human macrophages were plated/well in a 96-well plate in RPMI CM with 50 ng/mL of Human M-CSF-1 and incubated overnight at 37° C. and 5% CO2. • Human macrophages were treated with compound M1 for 1 hour followed by addition of LPS (1 μg/mL).
Fold change was calculated, and graphs were plotted using GraphPad Prism. TNFα cytokine levels measured in LPS stimulated human macrophages supernatants were reduced by 75% following treatment with compound M1.

[2] = test system: HuT-78 cell lines; test: MTT cell growth inhibition, combination with romidepsin, HuT-78; details: combined with romedepsin, 72 hrs
Description: Assay 5: Combination of Compound M1 with Standard Agents in HuT-78 Cell Lines
Day 0 • The HuT-78 cells were pelleted and counted. • Cells were plated at desired density (100 μl/well) in complete media in a 96-well plate in triplicates. A column for Day “0” reading was also seeded. (18-20 hrs after initial plating and before addition of the inhibitors) • Plates were incubated at 37° C. and 5% CO2. Day 1 • 10 μl of MTT (5 mg/ml) were added to the column designated for Day “0”. It was mixed well and incubated at 37° C. and 5% CO2 for 3.5 hours. Cells were pelleted down at 4000 rpm for 10 minutes. • Media was aspirated out and 150 μl of DMSO were added to the cells and mixed by pipetting to dissolve the crystals • The plate was read at A560 nm and A640 nm. Day 2 • A series of dilutions of the inhibitors were initially made in 100% DMSO and further diluted in growth medium. • Cells were treated with either single agent of DMSO, compound M1, romidepsin, or a combination of compound M1 and romidepsin (HuT-78). […] Crystals were dissolved by repeated pipetting. • The plate was read at A560 nm and A640 nm. […]
(§1) Reference absorbance values were subtracted from test absorbance values. Day 0 values were subtracted from final day absorbance values for determining cell growth. % Cell growth inhibitions were calculated.

[3] = test system: ZR.75.1 cell lines; test: MTT cell growth inhibition, combination with taxol, ZR.75.1; details: combined with taxol, 72 hrs
Description: Assay 6: Combination of Compound M1 with Standard Agents in Different Cell Lines
Day 0 • The cells were pelleted and counted. • Cells were plated at desired density (100 μl/well) in complete media in a 96-well plate in triplicates. A column for Day “0” reading was also seeded. (18-20 hrs after initial plating and before addition of the inhibitors) • Plates were incubated at 37° C. and 5% CO2. Day 1 • 10 μl of MTT (5 mg/ml) were added to the column designated for Day “0”. It was mixed well and incubated at 37° C. and 5% CO2 for 3.5 h. Cells were pelleted down at 4000 rpm for 10 minutes. • Media was aspirated out and 150 μl of DMSO were added to the cells and mixed by pipetting to dissolve the crystals • The plate was read at A560 nm and A640 nm. Day 2 • A series of dilutions of the inhibitors were initially made in 100% DMSO and further diluted in growth medium. • Cells were treated with either single agent of DMSO, compound M1, taxol, and a combination of compound M1 and taxol (MDA-MB-231, MCF-7, ZR.75.1 and SK-OV-3). […] Crystals were dissolved by repeated pipetting. • The plate was read at A560 nm and A640 nm. […]
as §1

CC[C@H](Nc1ncnc2[nH]c(O)nc12)c1oc2ccccc2c(=O)c1-c1cccc(F)c1 [Compound M1, (S)-3-(3-fluorophenyl)-2-(1-((8-hydroxy-9H-purin-6-yl)amino)propyl)-4H-chromen-4-one]
reduction of TNFα cytokine levels in supernatants [1]: 75%
cell growth inhibition in combination [2]: synergistic results
cell growth inhibition in combination [3]: synergistic results
